Data on four molecules can be found in ChEMBL document CHEMBL3751774, “Synthesis and anti-tubercular activity of conformationally-constrained and bisquinoline analogs of TMC207” (Medchemcomm, 2015).

Assay [1] deals with Mycobacterium tuberculosis. In words: Antitubercular activity against multi drug resistant Mycobacterium tuberculosis isolate 1 assessed as growth inhibition after 4 weeks. It counts as functional. Conditions: isolate 1, 672 h.
The test system of assay [2] is Mycobacterium tuberculosis. In words: Antitubercular activity against multi drug resistant Mycobacterium tuberculosis isolate 2 assessed as growth inhibition after 4 weeks. It counts as functional. Conditions: isolate 2, 672 h.

Converted amounts (≈) assume the structure as drawn.

By MIC is commonly meant the lowest concentration that inhibits growth of the organism.

Consider `C=CCCOc1nc2ccccc2cc1C(c1cc2ccccc2nc1OCCC=C)C(O)(CCN(C)C)c1ccc(Br)cc1` (stereo not drawn), for which the MIC in assay [1] and in assay [2] was 3.12 µM (≈ 2.08 µg/mL) each time.
Turning to `COc1nc2ccccc2cc1C(c1cc2ccccc2nc1OC)C(O)(CCN(C)C)c1cccc(Br)c1` (stereo not drawn), the MIC in assay [1] and in assay [2] was 3.12 µM (≈ 1.83 µg/mL) throughout.
On to `COc1nc2ccccc2cc1C(c1cc2ccccc2nc1OC)C(O)(CCN(C)C)c1ccccc1` (stereo not drawn), for which the MIC in assay [1] and in assay [2] was 3.12 µM (≈ 1.58 µg/mL) each time.
In the case of `COc1nc2ccccc2cc1C(c1cc2ccccc2nc1OC)C(O)(CCN(C)C)c1ccc2ccccc2c1` (stereo not drawn), the MIC in assay [1] and in assay [2] was 3.12 µM (≈ 1.74 µg/mL) each time.
